In patent US6022561A, “Bilayers preparations” (Scotia Lipidteknik AB, priority 1994, dated 2000):
Counter-ions that a name gives are not always drawn.

Tests used:
human whole blood = assay: Test 4. In vitro haemolysis test; type: cell-based; conditions: Li-GLA dissolved in 0.9% saline
Method: The samples were then incubated at 37° C. in an oxygen:carbon dioxide, 95:5, enriched atmosphere, 3 l/min, for 1 h, with constant gentle shaking. […] All samples were then spun for 2 min in an Eppendorf Microfuge (Brinkman Instruments Ltd, Canada) and finally analyzed on a centrifugal analyser (Cobas Bioanalyser; Hoffmann-La Roche Ltd, Canada) with UV scan of 540 nm.

haemolysis = assay: Haemolysis in vivo, preliminary studies; design: species or system rats
cancer cells = assay: Activity against cancer cells in vitro; type: cell-based

Q: With `CCCCC/C=C\C/C=C\C/C=C\CCCCC(=O)O` [Li-GLA, lithium salt of gammalinolenic acid] as the molecule, how does the “Concentration causing 100% haemolysis” value (human whole blood) read?
A: The value was 4000 to 5000 µM.

Q: What about the “"Red urine" in rats” value (haemolysis) of the same molecule?
A: Its value is “does”.

Q: What about the “Activity against cancer cells in vitro, free vs liposomal Li-GLA” value (cancer cells) of the same molecule?
A: The value was “almost identical”.
